Measurements published in article PMC10410513, “Differential roles for ACBD4 and ACBD5 in peroxisome–ER interactions and lipid metabolism” (The Journal of Biological Chemistry, 2023).

How the values were obtained:
ACBD4 = molecular target: T1, ACBD4 (Homo sapiens, UniProt Q8NC06); experiment: competition with […]C18:1-CoA, pull-down on Ni-NTA resin; format: binding; details: 2 uM protein, 5 uM [14C]C18:1-CoA, 0.2-20 uM competitor
T1 construct: recombinant MBP-His tagged, E. coli, amylose resin purified, tag kept
T1 sequence (Q8NC06 1-305 isoform Q8NC06-2): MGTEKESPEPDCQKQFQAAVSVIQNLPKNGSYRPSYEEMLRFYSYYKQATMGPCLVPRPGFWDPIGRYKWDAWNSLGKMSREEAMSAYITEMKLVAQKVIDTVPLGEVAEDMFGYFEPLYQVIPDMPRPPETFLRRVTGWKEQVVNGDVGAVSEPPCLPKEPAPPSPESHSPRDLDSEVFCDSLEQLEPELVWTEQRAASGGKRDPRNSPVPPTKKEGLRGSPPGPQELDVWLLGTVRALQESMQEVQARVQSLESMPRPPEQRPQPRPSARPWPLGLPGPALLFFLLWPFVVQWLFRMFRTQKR

ACBD5 = molecular target: T2, ACBD5 (Homo sapiens, UniProt Q5T8D3); experiment: as above; format: binding; details: 2 uM protein, 5 uM [14C]C18:1-CoA, 0.2-20 uM competitor
T2 construct: recombinant MBP-His tagged, E. coli, amylose resin purified, tag kept
T2 sequence (Q5T8D3 1-490 isoform Q5T8D3-2): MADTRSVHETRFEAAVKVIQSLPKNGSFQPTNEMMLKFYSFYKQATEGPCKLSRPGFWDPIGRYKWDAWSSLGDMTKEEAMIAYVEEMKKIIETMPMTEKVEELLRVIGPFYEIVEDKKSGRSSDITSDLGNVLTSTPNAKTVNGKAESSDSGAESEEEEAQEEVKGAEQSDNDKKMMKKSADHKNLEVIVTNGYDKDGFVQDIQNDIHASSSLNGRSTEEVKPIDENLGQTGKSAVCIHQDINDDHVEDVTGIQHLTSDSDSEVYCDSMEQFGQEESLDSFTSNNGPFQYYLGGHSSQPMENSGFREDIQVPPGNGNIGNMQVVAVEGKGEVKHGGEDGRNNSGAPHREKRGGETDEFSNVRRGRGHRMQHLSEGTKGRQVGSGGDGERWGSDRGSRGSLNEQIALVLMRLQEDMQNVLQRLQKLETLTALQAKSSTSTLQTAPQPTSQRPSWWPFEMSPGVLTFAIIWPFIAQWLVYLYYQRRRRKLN

CCCCCCCCCCCCCCCCCCCCCCCC(=O)SCCNC(=O)CCNC(=O)[C@H](O)C(C)(C)COP(=O)(O)OP(=O)(O)OC[C@H]1O[C@@H](n2cnc3c(N)ncnc32)[C@H](O)[C@@H]1OP(=O)(O)O [C24-CoA]
competition with [14C]C18:1-CoA, pull-down on Ni-NTA resin (ACBD4): ACBD4, which displayed a similar preference for long and very-long acyl-CoAs
competition with [14C]C18:1-CoA, pull-down on Ni-NTA resin (ACBD5): a stronger preference for the very-long-chain C24-CoA compared to the two long-chain acyl-CoAs
